Laboratory results: the CheMixHub viscosity set

Experiment: xn = mol fraction of the nth substance listed

CCCCCCCCCCCCCCC + CCCCCCCCCCO
100 kPa, x1 = 0.2565
Conditions | viscosity [mPa·s]
298.2 K | 6.68
308.2 K | 4.73
318.2 K | 3.47

CCCCCC[N+]1(C)CCOCC1.[Br-] + OCCOCCO
100 kPa, x1 = 0.2003
Conditions | viscosity [mPa·s]
293.15 K | 88.12
298.15 K | 66.83
303.15 K | 51.75
308.15 K | 40.85
313.15 K | 32.85
318.15 K | 26.75
323.15 K | 22.17

Cc1cc(C)cc(C)c1 + C[N+](=O)[O-]
293.15 K, 101.33 kPa
Conditions | viscosity [mPa·s]
x2 = 0.1192 | 0.686
x2 = 0.2065 | 0.683
x2 = 0.3019 | 0.679
x2 = 0.3858 | 0.679
x2 = 0.4761 | 0.674
x2 = 0.6061 | 0.671
x2 = 0.7112 | 0.666
x2 = 0.7985 | 0.657
x2 = 0.8912 | 0.648

CCC(C)CC + COC(C)(C)C
298.15 K, 101.33 kPa
Conditions | viscosity [mPa·s]
x2 = 0.0876 | 0.2925
x2 = 0.1993 | 0.2945
x2 = 0.2983 | 0.2972
x2 = 0.3943 | 0.3008
x2 = 0.5016 | 0.3049
x2 = 0.5934 | 0.3089
x2 = 0.6935 | 0.3139
x2 = 0.7963 | 0.3199
x2 = 0.8984 | 0.3268

O=C1CCCN1 + CN1CCCC1=O
298.15 K, 100 kPa
Conditions | viscosity [mPa·s]
x1 = 0.0188 | 1.759
x1 = 0.0298 | 1.79
x1 = 0.0397 | 1.827
x1 = 0.0507 | 1.835
x1 = 0.065 | 1.874
x1 = 0.0793 | 1.963
x1 = 0.097 | 1.992
x1 = 0.1004 | 1.999
x1 = 0.1498 | 2.168
x1 = 0.1993 | 2.356
x1 = 0.2495 | 2.568
x1 = 0.3001 | 2.808
x1 = 0.3497 | 3.067
x1 = 0.3986 | 3.361
x1 = 0.4492 | 3.704
x1 = 0.4994 | 4.091
x1 = 0.5493 | 4.53
x1 = 0.5989 | 5.022
x1 = 0.6497 | 5.608
x1 = 0.6992 | 6.263
x1 = 0.7487 | 7.017
x1 = 0.7986 | 7.914
x1 = 0.8494 | 8.966
x1 = 0.8984 | 10.14
x1 = 0.918 | 10.67
x1 = 0.9287 | 10.99
x1 = 0.9394 | 11.33
x1 = 0.959 | 12.01
x1 = 0.9695 | 12.29
x1 = 0.9798 | 12.64
x2 = 0.0111 | 12.96

NC(CO)(CO)CO + O
Conditions | viscosity [mPa·s]
298.15 K, 101 kPa, x1 = 0.001 | 0.91
298.15 K, 101 kPa, x1 = 0.01 | 1.03
298.15 K, 101 kPa, x1 = 0.022 | 1.18
298.15 K, 101 kPa, x1 = 0.034 | 1.46
298.15 K, 101 kPa, x1 = 0.055 | 1.97
303 K, 101 kPa, x1 = 0.06 | 2.19
303.15 K, 101 kPa, x1 = 0.001 | 0.79
303.15 K, 101 kPa, x1 = 0.01 | 0.91
303.15 K, 101 kPa, x1 = 0.022 | 1.05
303.15 K, 101 kPa, x1 = 0.034 | 1.28
303.15 K, 101 kPa, x1 = 0.055 | 1.77
303.15 K, 101.33 kPa, x1 = 0.008 | 0.905
303.15 K, 101.33 kPa, x1 = 0.02 | 1.042
303.15 K, 101.33 kPa, x1 = 0.04 | 1.475
303.15 K, 101.33 kPa, x1 = 0.047 | 1.789
308.15 K, 101 kPa, x1 = 0.001 | 0.69
308.15 K, 101 kPa, x1 = 0.01 | 0.79
308.15 K, 101 kPa, x1 = 0.022 | 0.94
308.15 K, 101 kPa, x1 = 0.034 | 1.14
308.15 K, 101 kPa, x1 = 0.055 | 1.54
313 K, 101 kPa, x1 = 0.06 | 1.68
313.15 K, 101 kPa, x1 = 0.001 | 0.62
313.15 K, 101 kPa, x1 = 0.01 | 0.71
313.15 K, 101 kPa, x1 = 0.022 | 0.85
313.15 K, 101 kPa, x1 = 0.034 | 1.03
313.15 K, 101 kPa, x1 = 0.055 | 1.37
313.15 K, 101.33 kPa, x1 = 0.008 | 0.738
313.15 K, 101.33 kPa, x1 = 0.02 | 0.846
313.15 K, 101.33 kPa, x1 = 0.026 | 0.981
313.15 K, 101.33 kPa, x1 = 0.047 | 1.399
318.15 K, 101 kPa, x1 = 0.001 | 0.58
318.15 K, 101 kPa, x1 = 0.01 | 0.65
318.15 K, 101 kPa, x1 = 0.022 | 0.77
318.15 K, 101 kPa, x1 = 0.034 | 0.93
318.15 K, 101 kPa, x1 = 0.055 | 1.22
323 K, 101 kPa, x1 = 0.06 | 1.32
323.15 K, 101 kPa, x1 = 0.001 | 0.52
323.15 K, 101 kPa, x1 = 0.022 | 0.71
323.15 K, 101 kPa, x1 = 0.034 | 0.84
323.15 K, 101 kPa, x1 = 0.055 | 1.11
323.15 K, 101.33 kPa, x1 = 0.008 | 0.616
323.15 K, 101.33 kPa, x1 = 0.02 | 0.705
323.15 K, 101.33 kPa, x1 = 0.026 | 0.811
323.15 K, 101.33 kPa, x1 = 0.04 | 0.962
323.15 K, 101.33 kPa, x1 = 0.047 | 1.129

OCCC1CCCCN1 (centres undefined) + O
viscosity [mPa·s], 101.3 kPa
Conditions | x1 = 0.0153 | x1 = 0.0564 | x1 = 0.102 | x1 = 0.173 | x1 = 0.295
298.15 K | 1.426 | 3.959 | 9.631 | 24.9 | 89.03
313.15 K | 1.025 | 2.371 | 5.15 | 11.33 | 35.53

O=C1CCCN1 + CC(O)CO
Conditions | viscosity [mPa·s]
298.15 K, 101.33 kPa, x1 = 0.06223 | 38.56
298.15 K, 101.33 kPa, x1 = 0.09322 | 36.35
298.15 K, 101.33 kPa, x1 = 0.1974 | 30.23
298.15 K, 101.33 kPa, x1 = 0.2925 | 26.21
298.15 K, 101.33 kPa, x1 = 0.3956 | 23.01
298.15 K, 101.33 kPa, x1 = 0.5612 | 19.49
298.15 K, 101.33 kPa, x1 = 0.5963 | 18.87
298.15 K, 101.33 kPa, x1 = 0.7003 | 17.36
298.15 K, 101.33 kPa, x1 = 0.7843 | 16.26
298.15 K, 101.33 kPa, x1 = 0.8992 | 14.8
298.15 K, 101.33 kPa, x1 = 0.9581 | 13.93
308.15 K, 101.33 kPa, x1 = 0.05382 | 23.04
308.15 K, 101.33 kPa, x1 = 0.1106 | 20.74
308.15 K, 101.33 kPa, x1 = 0.1986 | 18.2
308.15 K, 101.33 kPa, x1 = 0.3058 | 15.92
308.15 K, 101.33 kPa, x1 = 0.3989 | 14.45
308.15 K, 101.33 kPa, x1 = 0.512 | 12.98
308.15 K, 101.33 kPa, x1 = 0.5975 | 12.23
308.15 K, 101.33 kPa, x1 = 0.6998 | 11.39
308.15 K, 101.33 kPa, x1 = 0.8034 | 10.71
308.15 K, 101.33 kPa, x1 = 0.8984 | 9.939
308.15 K, 101.33 kPa, x1 = 0.957 | 9.465
313.15 K, 101 kPa, x1 = 0.0803 | 16.98
313.15 K, 101 kPa, x1 = 0.1596 | 15.07
313.15 K, 101 kPa, x1 = 0.2403 | 13.58
313.15 K, 101 kPa, x1 = 0.3201 | 12.41
313.15 K, 101 kPa, x1 = 0.4011 | 11.51
313.15 K, 101 kPa, x1 = 0.481 | 10.79
313.15 K, 101 kPa, x1 = 0.5617 | 10.17
313.15 K, 101 kPa, x1 = 0.6394 | 9.657
313.15 K, 101 kPa, x1 = 0.7192 | 9.2
313.15 K, 101 kPa, x1 = 0.7993 | 8.742
313.15 K, 101 kPa, x1 = 0.8723 | 8.338
313.15 K, 101 kPa, x1 = 0.9579 | 7.845
318.15 K, 101.33 kPa, x1 = 0.06032 | 14.2
318.15 K, 101.33 kPa, x1 = 0.09973 | 13.37
318.15 K, 101.33 kPa, x1 = 0.1931 | 11.82
318.15 K, 101.33 kPa, x1 = 0.3054 | 10.43
318.15 K, 101.33 kPa, x1 = 0.3986 | 9.613
318.15 K, 101.33 kPa, x1 = 0.5124 | 8.834
318.15 K, 101.33 kPa, x1 = 0.6012 | 8.369
318.15 K, 101.33 kPa, x1 = 0.6899 | 7.95
318.15 K, 101.33 kPa, x1 = 0.7926 | 7.488
318.15 K, 101.33 kPa, x1 = 0.9004 | 7.031
318.15 K, 101.33 kPa, x1 = 0.9614 | 6.774
